From patent publication US8487108B2, “Piperidinyl carbamate intermediates for the synthesis of aspartic protease inhibitors” (Vitae Pharmaceuticals, Inc., priority 2005, dated 2013) come the findings set out here.

For this assay, the target named is T1, trypsin-activated recombinant human renin (Homo sapiens, UniProt P00797).
T1 sequence (P00797 67-406): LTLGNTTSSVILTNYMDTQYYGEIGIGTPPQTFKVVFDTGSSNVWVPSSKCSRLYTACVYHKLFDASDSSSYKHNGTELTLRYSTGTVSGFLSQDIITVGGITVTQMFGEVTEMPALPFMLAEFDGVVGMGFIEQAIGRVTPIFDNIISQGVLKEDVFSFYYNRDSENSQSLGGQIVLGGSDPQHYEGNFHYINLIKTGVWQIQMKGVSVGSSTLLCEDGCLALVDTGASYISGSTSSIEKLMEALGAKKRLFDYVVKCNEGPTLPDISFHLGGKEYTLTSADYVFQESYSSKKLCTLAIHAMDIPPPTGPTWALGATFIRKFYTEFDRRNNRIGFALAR
Briefly: Renin fluorescence assay (internally quenched peptide substrate). Type of assay: biochemical. The following applies: compounds I*. The method in brief:
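Compounds (1 nM–10 μM final, DMSO) were mixed with internally quenched angiotensinogen-sequence substrate in pH 7.0 BES/NaCl/BSA buffer, then 0.2-2 nM trypsin-activated human renin added. Rate from the linear fluorescence increase (340 nm excitation, 495 nm emission) over 60-360 min at rt, compared with uninhibited control.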
Take `CNC[C@H](CN1CCCCC1=O)NC(=O)N1CCC[C@@H]([C@@H](OCCNC(=O)OC)c2cccc(F)c2)C1` [I*-46a, methyl 2-((R)-(3-fluorophenyl)((R)-1-((R)-1-(methylamino)-3-(2-oxopiperidin-1-yl)propan-2-ylcarbamoyl)piperidin-3-yl)methoxy)ethylcarbamate]: the IC50 is more than 50 nM.
As to `CNC[C@H](CC1CCCOCC1)NC(=O)N1CCC[C@@H]([C@@H](OCCNC(=O)OC)c2cccc(F)c2)C1` (stereo partly drawn) [I*-47a, methyl 2-((R)-(3-fluorophenyl)((3R)-1-((S)-1-(methylamino)-3-(oxepan-4-yl)propan-2-ylcarbamoyl)piperidin-3-yl)methoxy)ethylcarbamate], the IC50 is less than 10 nM.
Under `CNC[C@@H](NC(=O)N1CCC[C@@H]([C@@H](OCCNC(=O)OC)c2cccc(F)c2)C1)[C@@H](O)C1CCCCC1` [I*-48a, methyl 2-((R)-((R)-1-((1S,2R)-1-cyclohexyl-1-hydroxy-3-(methylamino)propan-2-ylcarbamoyl)piperidin-3-yl)(3-fluorophenyl)methoxy)ethylcarbamate] stands less than 10 nM; under `CNC[C@H](CC1CCOCC1)NC(=O)N1CCC[C@@H]([C@@H](OCCNC(=O)OC)c2cc(C)ccc2F)C1` [I*-49a, methyl 2-((R)-(2-fluoro-5-methylphenyl)((R)-1-((S)-1-(methylamino)-3-(tetrahydro-2H-pyran-4-yl)propan-2-ylcarbamoyl)piperidin-3-yl)methoxy)ethylcarbamate], more than 50 nM.
Under `CNC[C@H](CC1CCOCC1)NC(=O)N1CCC[C@@H]([C@@H](OCCNC(=O)OC)c2cc(F)ccc2C)C1` [I*-50a, methyl 2-((R)-(5-fluoro-2-methylphenyl)((R)-1-((S)-1-(methylamino)-3-(tetrahydro-2H-pyran-4-yl)propan-2-ylcarbamoyl)piperidin-3-yl)methoxy)ethylcarbamate] stands less than 10 nM; under `CNC[C@H](CC1CCC(O)CC1)NC(=O)N1CCC[C@@H]([C@@H](OCCNC(=O)OC)c2cccc(F)c2)C1` (stereo partly drawn) [I*-51a, methyl 2-((R)-(3-fluorophenyl)((R)-1-((S)-1-(4-hydroxycyclohexyl)-3-(methylamino)propan-2-ylcarbamoyl)piperidin-3-yl)methoxy)ethylcarbamate], more than 50 nM.
Under `CNC[C@H](CC1CCOCC1)NC(=O)N1CCC[C@@H]([C@@H](OCCNC(=O)OC)c2cc(C)cc(F)c2)C1` [I*-52a, methyl 2-((R)-(3-fluoro-5-methylphenyl)((R)-1-((S)-1-(methylamino)-3-(tetrahydro-2H-pyran-4-yl)propan-2-ylcarbamoyl)piperidin-3-yl)methoxy)ethylcarbamate] stands less than 10 nM; under `CNC[C@@H](NC(=O)N1CCC[C@@H]([C@@H](OCCNC(=O)OC)c2cc(F)ccc2C)C1)[C@@H](O)C1CCCC1` [I*-53a, methyl 2-((R)-((R)-1-((1S,2R)-1-cyclopentyl-1-hydroxy-3-(methylamino)propan-2-ylcarbamoyl)piperidin-3-yl)(5-fluoro-2-methylphenyl)methoxy)ethylcarbamate], less than 20 nM.
In the case of `CNCC(CC1CCCOC1)NC(=O)N1CCCC(C(O)(CCCNC(=O)OC)c2cccc(F)c2)C1` [I*-54a, methyl (S)-4-(3-fluorophenyl)-4-hydroxy-4-((3R)-1-((S)-1-(methylamino)-3-(tetrahydro-2H-pyran-3-yl)propan-2-ylcarbamoyl)piperidin-3-yl)butylcarbamate], the IC50 is less than 50 nM.
Under `CNC[C@H](C[C@H]1CCCCOC1)NC(=O)N1CCC[C@@H]([C@@H](OCCNC(=O)OC)c2cccc(F)c2)C1` [I*-55a, methyl 2-((R)-(3-fluorophenyl)((R)-1-((S)-1-(methylamino)-3-((R)-oxepan-3-yl)propan-2-ylcarbamoyl)piperidin-3-yl)methoxy)ethylcarbamate] stands less than 1 nM.
Under `CNC[C@H](C[C@H]1CCCOC1)NC(=O)N1CCCC[C@@H]([C@@H](OCCNC(=O)OC)c2cccc(F)c2)C1` [I*-56a, methyl 2-((R)-(3-fluorophenyl)((R)-1-((S)-1-(methylamino)-3-((R)-tetrahydro-2H-pyran-3-yl)propan-2-ylcarbamoyl)azepan-3-yl)methoxy)ethylcarbamate] stands less than 10 nM; under `CNC[C@H](C[C@H]1CCCCOC1)NC(=O)N1CCC[C@@H]([C@@H](OCCNC(=O)OC)c2ccccc2F)C1` [I*-57a, methyl 2-((1R)-(2-fluorophenyl)((3R)-1-(1-(methylamino)-3-((R)-oxepan-3-yl)propan-2-ylcarbamoyl)piperidin-3-yl)methoxy)ethylcarbamate], less than 10 nM; under `COC(=O)NCCO[C@@H](c1cc(F)ccc1C)[C@@H]1CCCN(C(=O)NC[C@@H](N)C[C@H]2CCCCOC2)C1` [I*-58a, methyl 2-((R)-((R)-1-((S)-2-amino-3-((R)-oxepan-3-yl)propylcarbamoyl)piperidin-3-yl)(5-fluoro-2-methylphenyl)methoxy)ethylcarbamate], less than 10 nM.
For the molecule `COC(=O)NCCO[C@@H](c1cccc(Cl)c1)[C@@H]1CCCN(C(=O)N[C@](C)(CN)CC2CCCCC2)C1` [I*-59a, methyl 2-((R)-((R)-1-((S)-1-amino-3-cyclohexyl-2-methylpropan-2-ylcarbamoyl)piperidin-3-yl)(3-chlorophenyl)methoxy)ethylcarbamate], the IC50 is less than 10 nM.
As to `CNC[C@H](CC1CCCC1)NC(=O)N1CCC[C@@H]([C@@H](OCCNC(=O)OC)c2cc(Cl)ccc2C)C1` [I*-60a, methyl 2-((R)-(5-chloro-2-methylphenyl)((R)-1-((S)-1-cyclopentyl-3-(methylamino)propan-2-ylcarbamoyl)piperidin-3-yl)methoxy)ethylcarbamate], the IC50 is less than 1 nM.
`CCNC(=O)CO[C@@H](c1cccc(Cl)c1)[C@@H]1CCCN(C(=O)N[C@H](CNC)C[C@H]2CCCCOC2)C1` [I*-61a, (R)-3-((R)-(3-chlorophenyl)(2-(ethylamino)-2-oxoethoxy)methyl)-N-((2S)-1-(methylamino)-3-((R)-oxepan-3-yl)propan-2-yl)piperidine-1-carboxamide]: the IC50 was less than 10 nM.
On to `CNC[C@H](CC1CCCCC1)NC(=O)N1CCC[C@@H]([C@@H](OCCNC(=O)OC)c2cc(F)ccc2F)C1` [I*-63a, methyl 2-((R)-((R)-1-((S)-1-cyclohexyl-3-(methylamino)propan-2-ylcarbamoyl)piperidin-3-yl)(2,5-difluorophenyl)methoxy)ethylcarbamate], for which the IC50 is less than 1 nM.
Regarding `CNC[C@H](CC1CCCCC1)NC(=O)N1CCC[C@@H]([C@@H](OCCNC(=O)OC)c2cc(F)cc(F)c2)C1` [I*-64a, methyl 2-((R)-((R)-1-((S)-1-cyclohexyl-3-(methylamino)propan-2-ylcarbamoyl)piperidin-3-yl)(3,5-difluorophenyl)methoxy)ethylcarbamate], the IC50 is less than 1 nM.
As to `CNC[C@H](CC1CCCCC1)NC(=O)N1CCC[C@@H]([C@@H](OCCNC(=O)OC)c2ccc(F)c(F)c2)C1` [I*-65a, methyl 2-((R)-((R)-1-((S)-1-cyclohexyl-3-(methylamino)propan-2-ylcarbamoyl)piperidin-3-yl)(3,4-difluorophenyl)methoxy)ethylcarbamate], the IC50 is less than 10 nM.
